Results published in patent US6995281B2, “Methods for selectively removing counterions from compounds and compounds derived from such methods” (Pfizer, Inc., priority 2003, dated 2006).
Where a name gives a salt, the structure may show the parent alone.

How the values were obtained:
Assay type in all cases: physicochemical
[1] = HPLC analysis after removal of excess HCl with anion exchange resin (Example 4); conditions: pH raised from 1.04 to 2.5 with Amberlite 400 (OH) resin
Procedure: To 3.3 g of sample containing around 305 mg/ml S-[2-[(1-Iminoethyl)amino]ethyl]-2-methyl-L-cysteine dihydrochloride and around 0.2 eq excess HCl, was added 16.7 g of deioinized water. The pH was 1.04. To 14 ml of this solution, prewashed Amberlite 400 (OH) resin was added to obtain a ph of 2.5. The anion exchange treatment lightened the color of the solution from light yellow to water white. The resin was removed by filtration and the starting material and filtrate product were analyzed by chloride titration and HPLC.

[2] = Stability of free zwitterion samples at different pH by ion pairing gradient HPLC (Example 6, Table 2); conditions: summary of Table 2
Procedure: Amberlite IRA400 (Cl) resin was rinsed with 3M HCl, water, and then 3M NaOH. Aliquots were 100 ml per 10 g of resin. This procedure was repeated 3 times in order to clean the resin and in order to generate the OH form. A final rinse with water was carried out until the conductivity of the eluting water was 2 μS. The resin was then used to titrate 40 ml of a 50 mg/ml solution of S-[2-[(1-Iminoethyl)amino]ethyl]-2-methyl-L-cysteine dihydrochloride. The concentration is expressed in terms of zwitterion equivalents. Aliquots were taken throughout the titration, filtered and analyzed by HPLC. Subsamples of the aliquots were saved for a second HPLC analysis 1 week after the titration was performed in order to assess the stability of the samples. Additional aliquots were taken for Cl analysis using an ion selective electrode. The pH was also monitored throughout the titration. HPLC analyses were performed using an ion pairing gradient method. […] HPLC Method • Pump A: 20 mM KH2PO4, 10 mM Pentane sulfonic acid, adjusted to pH=3 with phosphoric acid • Pump B: Acetonitrile • Gradient: 0% B at 0 min, 26% B at 15 min, 0% B at 15.1 min • Column: YMC ODS-AQ 120 A, 5 μm, 2.6×150 mm • Wavelength=205 nm

[3] = Pseudo-titration in water with IRA-400(OH) anion exchange resin, samples assayed by HPLC (Example 3); conditions: not a true titration curve
Procedure: 60 g of Amberlite IRA400 (OH) resin (a strongly anionic quaternary ammonium polystyrene resin, about 16–50 mesh, available from Rohm & Haas, Philadelphia, Pa.,) was prewashed with 4.7 percent (by weight) ammonium hydroxide (50 ml of 28 percent ammonium hydroxide, 250 ml deionized water), followed by extensive washing with deionized water. The final conductivity was 6.1 μS.
Samples containing about 0.9 g of S-[2-[(1-Iminoethyl)amino]ethyl]-2-methyl-L-cysteine di-hydrochloride in 142 ml HCl/water solution, were concentrated on a rotary evaporator at 60° C. to an oil. To the oil, diluted to 60 ml with deionized water, was added aliquots of 0.5 g of washed anion exchange resin while stirring. At five minutes after each aliquot of resin was added, the solution pH was measured and a sample removed through a syringe filter. A total of 9 g of anion exchange resin was added. The final pH was 10.8. The resin was removed by filtration and the filtrate was concentrated to an oil by rotary evaporation at 60° C.; no solids formed. The starting material, final filtrate and all intermediate samples were assayed by HPLC and ion chromatography for chloride.
The diamond (solid line) is pH and square (dashed line) is S-[2-[(1-Iminoethyl)amino]ethyl]-2-methyl-L-cysteine (percent initial, by ion chromatography). […] The diamond (solid line) is pH and triangle (broken line) is chloride (by ion chromatography).
These curves are not true titration curves since samples were withdrawn during the progress of the reaction, and since true equilibrium was not attained before the increments of resin were added. Nevertheless, the graphs of FIG. 2 and FIG. 3 illustrate the expected trends. As resin is added to the S-[2-[(1-Iminoethyl)amino]ethyl]-2-methyl-L-cysteine solution the pH rises with change in slope around pH's of 2, 9 and 11. The pH's of slower rise are representative of the pK's of the carboxylic acid, amine and amidine functional groups, respectively. Above a pH of 10, the S-[2-[(1-Iminoethyl)amino]ethyl]-2-methyl-L-cysteine concentration in solution decreases. […]

Row | pH of slower rise representative of the pK of the amidine group [3] | pH of slower rise representative of the pK of the amine group [3] | pH of slower rise representative of the pK of the carboxylic acid group [3] | Compound | Qualitative HPLC analysis of starting material and product [1] | Degradation when made basic (HPLC) [2]
1 | – | – | – | CC(=N)NCCSC[C@](C)(N)C(=O)O [Example 1, S-[2-[(1-Iminoethyl)amino]ethyl]-2-methyl-L-cysteine, dihydrochloride] | no new peaks and no increase in impurities | –
2 | ~11 | ~9 | ~2 | CC(=N)NCCSC[C@](C)(N)C(=O)O [S-[2-[(1-Iminoethyl)amino]ethyl]-2-methyl-L-cysteine] | – | degradation is not immediate but instead occurs over a period of days
